Data: US20100105655A1, “NOVEL COMPOUNDS 515” (ASTRAZENECA AB, priority 2008, published 2010)

The compounds below were run against T1, IGFR kinase (Homo sapiens, UniProt P08069) (assay: Enzyme assay (c), IGFR kinase, Caliper LabChip). Settings: 30 nM IGFR kinase, 6 uM ATP, 3 uM peptide mix; read-out: IGFR IC50.
T1 construct: purchased Millipore
T1 sequence (P08069 31-1367): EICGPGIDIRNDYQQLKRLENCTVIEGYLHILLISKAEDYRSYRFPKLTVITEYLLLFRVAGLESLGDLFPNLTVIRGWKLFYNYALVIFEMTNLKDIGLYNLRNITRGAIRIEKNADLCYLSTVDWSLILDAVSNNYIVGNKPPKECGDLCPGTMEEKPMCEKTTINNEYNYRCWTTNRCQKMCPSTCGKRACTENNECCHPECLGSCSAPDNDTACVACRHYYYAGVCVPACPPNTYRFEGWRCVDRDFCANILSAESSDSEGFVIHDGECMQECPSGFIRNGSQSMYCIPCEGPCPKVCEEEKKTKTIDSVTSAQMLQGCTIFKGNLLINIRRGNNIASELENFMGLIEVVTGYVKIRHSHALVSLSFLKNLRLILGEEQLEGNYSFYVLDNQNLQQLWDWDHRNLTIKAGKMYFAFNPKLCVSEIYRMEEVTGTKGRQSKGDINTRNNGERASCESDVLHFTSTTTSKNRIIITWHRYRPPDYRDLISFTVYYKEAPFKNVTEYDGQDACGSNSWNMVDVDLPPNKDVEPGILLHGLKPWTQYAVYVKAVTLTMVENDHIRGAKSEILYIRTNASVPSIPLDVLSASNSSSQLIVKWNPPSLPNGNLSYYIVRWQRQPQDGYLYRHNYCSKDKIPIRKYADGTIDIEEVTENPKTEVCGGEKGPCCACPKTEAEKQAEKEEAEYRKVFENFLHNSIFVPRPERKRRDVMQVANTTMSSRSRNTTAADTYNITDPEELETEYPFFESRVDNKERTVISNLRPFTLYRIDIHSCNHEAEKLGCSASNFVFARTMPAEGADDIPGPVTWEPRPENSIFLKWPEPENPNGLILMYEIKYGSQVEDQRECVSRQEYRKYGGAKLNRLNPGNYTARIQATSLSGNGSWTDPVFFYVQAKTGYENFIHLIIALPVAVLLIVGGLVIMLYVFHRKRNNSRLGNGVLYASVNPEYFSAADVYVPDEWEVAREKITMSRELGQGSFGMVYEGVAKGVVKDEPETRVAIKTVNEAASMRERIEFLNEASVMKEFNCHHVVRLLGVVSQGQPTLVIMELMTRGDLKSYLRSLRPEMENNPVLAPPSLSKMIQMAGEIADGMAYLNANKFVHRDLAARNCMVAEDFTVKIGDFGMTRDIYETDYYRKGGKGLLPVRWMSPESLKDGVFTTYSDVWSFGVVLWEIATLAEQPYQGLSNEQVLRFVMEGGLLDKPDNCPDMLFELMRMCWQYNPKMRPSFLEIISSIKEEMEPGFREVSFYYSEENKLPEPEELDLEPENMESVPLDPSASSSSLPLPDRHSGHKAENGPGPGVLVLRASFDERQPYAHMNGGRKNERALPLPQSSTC
Type: biochemical
In the case of `COc1cc(N2CCN(C(C)=O)CC2)ccc1Nc1ncc(Cl)c(-c2cnc3ccc(Br)cn23)n1` [Example 126.1, 1-[4-[4-[[4-(6-bromoimidazo[1,2-a]pyridin-3-yl)-5-chloropyrimidin-2-yl]amino]-3-methoxyphenyl]piperazin-1-yl]ethanone], the IC50 is reported as 9 nM.
`CCc1ccn2c(-c3nc(Nc4ccc(N5CCN(C(C)=O)CC5)cc4OC)ncc3Cl)cnc2c1` [Example 126.8, 1-[4-[4-[[5-chloro-4-(7-ethylimidazo[1,2-a]pyridin-3-yl)pyrimidin-2-yl]amino]-3-methoxyphenyl]piperazin-1-yl]ethanone] gave an IC50 of 21 nM.
`COc1cc(N2CCN(C(C)=O)CC2)ccc1Nc1ncc(Cl)c(-c2cnc3cc(Br)ccn23)n1` [Example 126.19, 1-[4-[4-[[4-(7-bromoimidazo[1,2-a]pyridin-3-yl)-5-chloro-pyrimidin-2-yl]amino]-3-methoxy-phenyl]piperazin-1-yl]ethanone] showed an IC50 of 15 nM.
For `COc1cc(N2CCNCC2)ccc1Nc1ncc(Cl)c(-c2cnn3ccccc23)n1` [Example 129, 5-chloro-N-(2-methoxy-4-piperazin-1-yl-phenyl)-4-pyrazolo[1,5-a]pyridin-3-yl-pyrimidin-2-amine], the IC50 was 3 nM.
Work on `COc1cc(N2CCN(C(=O)CO)CC2)ccc1Nc1ncc(Cl)c(-c2cnn3ccccc23)n1` [Example 130, 1-[4-[4-[(5-chloro-4-pyrazolo[1,5-a]pyridin-3-yl-pyrimidin-2-yl)amino]-3-methoxy-phenyl]piperazin-1-yl]-2-hydroxy-ethanone] yielded an IC50 of 3 nM.
Work on `COc1cc(N2CCN(C(=O)[C@@H](C)O)CC2)ccc1Nc1ncc(Cl)c(-c2cnn3ccccc23)n1` [Example 131, (2R)-1-[4-[4-[(5-chloro-4-pyrazolo[1,5-a]pyridin-3-yl-pyrimidin-2-yl)amino]-3-methoxy-phenyl]piperazin-1-yl]-2-hydroxy-propan-1-one] yielded an IC50 of 3 nM.
`COc1cc(N2CCN(C(=O)[C@H](C)N)CC2)ccc1Nc1ncc(Cl)c(-c2cnn3ccccc23)n1` [Example 132, (2S)-2-amino-1-[4-[4-[(5-chloro-4-pyrazolo[1,5-a]pyridin-3-yl-pyrimidin-2-yl)amino]-3-methoxy-phenyl]piperazin-1-yl]propan-1-one] was tested, and the IC50 was 3 nM.
Work on `CNCC(=O)N1CCN(c2ccc(Nc3ncc(Cl)c(-c4cnn5ccccc45)n3)c(OC)c2)CC1` [Example 133, 1-[4-[4-[(5-chloro-4-pyrazolo[1,5-a]pyridin-3-yl-pyrimidin-2-yl)amino]-3-methoxy-phenyl]piperazin-1-yl]-2-methylamino-ethanone] yielded an IC50 of 3 nM.
Work on `COc1cc(N2CCN(CCO)CC2)ccc1Nc1ncc(Cl)c(-c2cnn3ccccc23)n1` [Example 134, 2-[4-[4-[(5-chloro-4-pyrazolo[1,5-a]pyridin-3-yl-pyrimidin-2-yl)amino]-3-methoxy-phenyl]piperazin-1-yl]ethanol] yielded an IC50 of 5 nM.
In the case of `COc1cc(C2CN(C(=O)[C@H](C)O)C2)ccc1Nc1ncc(Cl)c(-c2cnn3ccccc23)n1` [Example 135A], the IC50 is reported as 11 nM.
In the case of `COc1cc(C2CN(C(=O)[C@@H](C)O)C2)ccc1Nc1ncc(Cl)c(-c2cnn3ccccc23)n1` [Example 135B], the IC50 is reported as 8 nM.
Work on `COc1cc(C2CCN(C(=O)CO)CC2)ccc1Nc1ncc(Cl)c(-c2cnn3ccccc23)n1` [Example 137, 1-[4-[4-[(5-chloro-4-pyrazolo[1,5-a]pyridin-3-yl-pyrimidin-2-yl)amino]-3-methoxy-phenyl]-1-piperidyl]-2-hydroxy-ethanone] yielded an IC50 of 3 nM.
With `COc1cc(C2CCN(C(=O)[C@@H](C)O)CC2)ccc1Nc1ncc(Cl)c(-c2cnn3ccccc23)n1` [Example 138, (2R)-1-[4-[4-[(5-chloro-4-pyrazolo[1,5-a]pyridin-3-yl-pyrimidin-2-yl)amino]-3-methoxy-phenyl]-1-piperidyl]-2-hydroxy-propan-1-one] the IC50 was 3 nM.
In the case of `COc1cc(C2CCN(C(=O)[C@H](C)O)CC2)ccc1Nc1ncc(Cl)c(-c2cnn3ccccc23)n1` [Example 139, (2S)-1-[4-[4-[(5-chloro-4-pyrazolo[1,5-a]pyridin-3-yl-pyrimidin-2-yl)amino]-3-methoxy-phenyl]-1-piperidyl]-2-hydroxy-propan-1-one], the IC50 is reported as 12 nM.
Compound `CNCC(=O)N1CCN(c2ccc(OC)c(Nc3ncc(Cl)c(-c4cnc5ccccn45)n3)c2)CC1` [Example 145, 1-[4-[3-[(5-chloro-4-imidazo[1,2-a]pyridin-3-yl-pyrimidin-2-yl)amino]-4-methoxy-phenyl]piperazin-1-yl]-2-(methylamino)ethanone] has an IC50 of 59 nM.
Work on `COc1ccc(N2CCNCC2)cc1Nc1ncc(Cl)c(-c2cnn3ccccc23)n1` [Example 147, 5-chloro-N-(2-methoxy-5-piperazin-1-yl-phenyl)-4-pyrazolo[1,5-a]pyridin-3-yl-pyrimidin-2-amine] yielded an IC50 of 14 nM.
`COc1cc(C(CO)CO)ccc1Nc1ncc(Cl)c(-c2cnn3ccccc23)n1` [Example 148, 2-[4-[(5-chloro-4-pyrazolo[1,5-a]pyridin-3-yl-pyrimidin-2-yl)amino]-3-methoxy-phenyl]propane-1,3-diol] gave an IC50 of 17 nM.
Compound `COc1cc(N2CC3CNCC(C2)O3)ccc1Nc1ncc(Cl)c(-c2cnn3ccccc23)n1` [Example 149, 5-chloro-N-[2-methoxy-4-(9-oxa-3,7-diazabicyclo[3.3.1]nonan-7-yl)phenyl]-4-pyrazolo[1,5-a]pyridin-3-yl-pyrimidin-2-amine] has an IC50 of 7 nM.
Work on `COc1cc(N2CC3CN(CCO)CC(C2)O3)ccc1Nc1ncc(Cl)c(-c2cnn3ccccc23)n1` [Example 150, 2-[7-[4-[(5-chloro-4-pyrazolo[1,5-a]pyridin-3-yl-pyrimidin-2-yl)amino]-3-methoxy-phenyl]-9-oxa-3,7-diazabicyclo[3.3.1]nonan-3-yl]ethanol] yielded an IC50 of 5 nM.
`COc1ccc(N2CCN(C(=O)CN(C)C)CC2)cc1Nc1ncc(Cl)c(-c2cnn3ccccc23)n1` [Example 152, 1-[4-[3-[(5-chloro-4-pyrazolo[1,5-a]pyridin-3-yl-pyrimidin-2-yl)amino]-4-methoxy-phenyl]piperazin-1-yl]-2-(dimethylamino)ethanone] was tested, and the IC50 was 25 nM.
In the case of `COc1cc2c(cc1Nc1ncc(Cl)c(-c3cnn4ccccc34)n1)NCC2` [Example 155, N-(5-chloro-4-pyrazolo[1,5-a]pyridin-3-yl-pyrimidin-2-yl)-5-methoxy-indolin-6-amine], the IC50 is reported as 120 nM.
`CNCC(=O)N1CCc2cc(OC)c(Nc3ncc(Cl)c(-c4cnn5ccccc45)n3)cc21` [Example 156, 1-[6-[(5-chloro-4-pyrazolo[1,5-a]pyridin-3-yl-pyrimidin-2-yl)amino]-5-methoxy-indolin-1-yl]-2-(methylamino)ethanone] was tested, and the IC50 was 4 nM.
In the case of `COc1cc2c(cc1Nc1ncc(Cl)c(-c3cnn4ccccc34)n1)N(C(=O)CN(C)C)CC2` [Example 157, 1-[6-[(5-chloro-4-pyrazolo[1,5-a]pyridin-3-yl-pyrimidin-2-yl)amino]-5-methoxy-indolin-1-yl]-2-(dimethylamino)ethanone], the IC50 is reported as 1 nM.
For `COc1cc(N2CCN(C(C)=O)CC2)ccc1Nc1ncc(C)c(-c2cnn3ccccc23)n1` [Example 158, 1-[4-[3-methoxy-4-[(5-methyl-4-pyrazolo[1,5-a]pyridin-3-yl-pyrimidin-2-yl)amino]phenyl]piperazin-1-yl]ethanone], the IC50 was 15 nM.
